The values that follow are results of earlier work, collected in patent US11529387B2, “Nutritional supplements and methods of nutritional supplementation affecting global mood state” (Amare Global, priority 2019, dated 2022).

For data set [1] the following is noted: runners, submaximal running intensity, week 8 post-supplementation vs pre-supplementation and vs placebo, p<0.05.

`CC1=C(/C=C/C(C)=C/C=C/C(C)=C/C=C/C=C(C)/C=C/C=C(C)/C=C/C2=C(C)C(=O)[C@@H](O)CC2(C)C)C(C)(C)C[C@H](O)C1=O` [NAX, astaxanthin]: the “Global Mood State score” value (8 weeks post-supplementation, lower score = more positive mood) is 127+20. Besides, the “Global Mood change” value (8 weeks post-supplementation, lower score = more positive mood, p<0.05) is given as −11%. Under “baseline to week 8, NS”, the Anger sub-scale change is −12%, the Confusion sub-scale change is reported as −28%, the Tension sub-scale change is −20% and the Vigor sub-scale change result is “+5%”. For the setting “baseline to week 8, p<0.05”, the Depression sub-scale change is −57% and the Fatigue sub-scale change is on record as −36%. For the same molecule, in data set [1], the “heart rate (HR) at AT, anaerobic threshold” value is recorded as “significantly lower heart rate” and the “heart rate (HR) at AeT, aerobic threshold” value is on record as “significantly lower heart rate”.
